According to ChEMBL document CHEMBL1134504, “Synthesis and cytotoxic activity of 7-oxo-7H-dibenz[f,ij]isoquinoline and 7-oxo-7H-benzo[e]perimidine derivatives” (J Med Chem, 2001):

How the values were obtained:
[1] = test system: Lewis lung carcinoma cell line; test: Inhibitory activity against Lewis lung carcinoma cells; type: functional, cell-based; conditions: Mus musculus
Jurkat [2] = test: Ratio of IC50 against Jurkat human leukemia doxorubicin-resistant cells (JLD) to Jurkat human leukemia cells (JLC); type: functional
Jurkat [3] = test: Ratio of IC50 against Jurkat human leukemia amsacrine-resistant cells (JLA) to Jurkat human leukemia cells (JLC); type: functional
P388 = test: Inhibitory activity against P388 murine leukemia cells; type: functional, cell-based; conditions: Mus musculus
Jurkat [4] = test: Inhibitory activity against Jurkat human leukemia cells; type: functional, cell-based

Q: What does the source list for `Cc1cc2c3c(cccc3n1)C(=O)c1cccc(C(=O)NCCN(C)C)c1-2`?
A: IC50 [1]: 101 nM; IC50 ratio (Jurkat [2]): 2.5; IC50 ratio (Jurkat [3]): 2.5; IC50 (P388): 100 nM; IC50 (Jurkat [4]): 424 nM

Q: With `Cc1cc2c3c(cccc3n1)C(=O)c1c(C(=O)NCCN(C)C)cccc1-2` as the compound, how does the IC50 [1] read?
A: Its IC50 is 1790 nM.

Q: And the IC50 ratio (Jurkat [2])?
A: The IC50 ratio was 1.1.

Q: What about the IC50 ratio (Jurkat [3]) of the same compound?
A: The IC50 ratio was 1.

Q: What about the IC50 (P388) of the same compound?
A: The IC50 was 6600 nM.

Q: What about the IC50 (Jurkat [4]) of the same compound?
A: Its IC50 is 1420 nM.

Q: What does the source list for `Cc1cc2c3c(ccc(C(=O)NCCN(C)C)c3n1)C(=O)c1ccccc1-2`?
A: IC50 [1]: 717 nM; IC50 ratio (Jurkat [2]): 1; IC50 ratio (Jurkat [3]): 1.2; IC50 (P388): 890 nM; IC50 (Jurkat [4]): 717 nM

Q: With `CN(C)CC/N=C/c1cc2c3c(cccc3n1)C(=O)c1ccccc1-2` as the compound, how does the IC50 [1] read?
A: Its IC50 is 2480 nM.

Q: What about the IC50 ratio (Jurkat [2]) of the same compound?
A: The IC50 ratio was 0.8.

Q: What about the IC50 ratio (Jurkat [3]) of the same compound?
A: The IC50 ratio was 0.6.

Q: What about the IC50 (P388) of the same compound?
A: Its IC50 is 6200 nM.

Q: What about the IC50 (Jurkat [4]) of the same compound?
A: Its IC50 is 3360 nM.

Q: For `CN(C)CCNC(=O)c1nc2c3c(cccc3n1)C(=O)c1ccccc1-2`, which IC50 [1] is on record?
A: The IC50 was 1030 nM.

Q: What about the IC50 ratio (Jurkat [2]) of the same compound?
A: The IC50 ratio was 0.9.

Q: What about the IC50 ratio (Jurkat [3]) of the same compound?
A: The IC50 ratio was 1.

Q: And the IC50 (P388)?
A: The IC50 was 1500 nM.

Q: What about the IC50 (Jurkat [4]) of the same compound?
A: Its IC50 is 1240 nM.

Q: `CN(CCNC(=O)c1cc2c3c(cccc3n1)C(=O)c1ccccc1-2)CCN(C)CCNC(=O)c1cc2c3c(cccc3n1)C(=O)c1ccccc1-2` was tested. Which IC50 [1] did it give?
A: The IC50 was 472 nM.

Q: What about the IC50 ratio (Jurkat [2]) of the same compound?
A: The IC50 ratio was 0.8.

Q: What about the IC50 ratio (Jurkat [3]) of the same compound?
A: The IC50 ratio was 0.2.

Q: What about the IC50 (P388) of the same compound?
A: Its IC50 is 790 nM.

Q: And the IC50 (Jurkat [4])?
A: The IC50 was 566 nM.

Q: How did the IC50 [1] turn out when `CN(C)CCNC(=O)c1cc2c3c(ccc(Cl)c3n1)C(=O)c1c(C(=O)NCCN(C)C)cccc1-2` was run?
A: Its IC50 is 200 nM.

Q: And the IC50 ratio (Jurkat [2])?
A: The IC50 ratio was 1.6.

Q: And the IC50 ratio (Jurkat [3])?
A: Its IC50 ratio is 0.9.

Q: What about the IC50 (P388) of the same compound?
A: Its IC50 is 5800 nM.

Q: What about the IC50 (Jurkat [4]) of the same compound?
A: Its IC50 is 800 nM.

Q: `O=C1c2ccccc2-c2cc(/C=N/NC3=NCCN3)nc3cccc1c23` was tested. Which IC50 [1] did it give?
A: The IC50 was 830 nM.

Q: And the IC50 ratio (Jurkat [2])?
A: The IC50 ratio was 1.1.

Q: What about the IC50 ratio (Jurkat [3]) of the same compound?
A: Its IC50 ratio is 1.

Q: What about the IC50 (P388) of the same compound?
A: The IC50 was 340 nM.

Q: And the IC50 (Jurkat [4])?
A: The IC50 was 422 nM.

Q: Which results are given for `CN(C)CC(CN(C)C)c1cc2c3c(cccc3n1)C(=O)c1ccccc1-2`?
A: IC50 [1]: 98 nM; IC50 ratio (Jurkat [2]): 1; IC50 ratio (Jurkat [3]): 0.8; IC50 (P388): 110 nM; IC50 (Jurkat [4]): 550 nM

Q: Which results are given for `CN(C)CCNC(=O)c1cc2c3c(cccc3n1)C(=O)c1c(Cl)cccc1-2`?
A: IC50 [1]: 483 nM; IC50 ratio (Jurkat [2]): 0.9; IC50 ratio (Jurkat [3]): 1; IC50 (P388): 800 nM; IC50 (Jurkat [4]): 758 nM

Q: Which IC50 [1] does the source give for `CN(C)CCc1cc2c3c(cccc3n1)C(=O)c1ccccc1-2` here?
A: Its IC50 is 887 nM.

Q: And the IC50 ratio (Jurkat [2])?
A: Its IC50 ratio is 0.8.

Q: And the IC50 ratio (Jurkat [3])?
A: Its IC50 ratio is 0.8.

Q: And the IC50 (P388)?
A: The IC50 was 2300 nM.

Q: What about the IC50 (Jurkat [4]) of the same compound?
A: Its IC50 is 1010 nM.

Q: For `CN(C)CCNc1nc2c3c(cccc3n1)C(=O)c1ccccc1-2`, which IC50 [1] is on record?
A: The IC50 was 525 nM.

Q: And the IC50 ratio (Jurkat [2])?
A: The IC50 ratio was 0.7.

Q: And the IC50 ratio (Jurkat [3])?
A: Its IC50 ratio is 0.7.

Q: And the IC50 (P388)?
A: Its IC50 is 1000 nM.

Q: What about the IC50 (Jurkat [4]) of the same compound?
A: The IC50 was 860 nM.

Q: What does the source list for `CN(C)CCNc1cc2c3c(cccc3n1)C(=O)c1ccccc1-2`?
A: IC50 [1]: 1080 nM; IC50 ratio (Jurkat [2]): 0.9; IC50 ratio (Jurkat [3]): 0.8; IC50 (P388): 1300 nM; IC50 (Jurkat [4]): 1160 nM

Q: Which results are given for `CN(C)CCNC(=O)c1cc2c3c(cccc3n1)C(=O)c1ccccc1-2`?
A: IC50 [1]: 35 nM; IC50 ratio (Jurkat [2]): 0.8; IC50 ratio (Jurkat [3]): 0.2; IC50 (P388): 600 nM; IC50 (Jurkat [4]): 165 nM

Q: For `CN(C)CCNC(=O)c1cc2c3c(cccc3n1)C(=O)c1cccc(Cl)c1-2`, which IC50 [1] is on record?
A: Its IC50 is 128 nM.

Q: What about the IC50 ratio (Jurkat [2]) of the same compound?
A: Its IC50 ratio is 0.8.

Q: What about the IC50 ratio (Jurkat [3]) of the same compound?
A: Its IC50 ratio is 0.7.

Q: What about the IC50 (P388) of the same compound?
A: The IC50 was 130 nM.

Q: And the IC50 (Jurkat [4])?
A: The IC50 was 238 nM.

Q: For `COc1cc(NS(C)(=O)=O)ccc1Nc1c2ccccc2nc2ccccc12` [AMSACRINE], which IC50 ratio (Jurkat [2]) is on record?
A: Its IC50 ratio is 74.

Q: And the IC50 ratio (Jurkat [3])?
A: The IC50 ratio was 85.

Q: What does the source list for `CC[C@@]1(O)C(=O)OCc2c1cc1n(c2=O)Cc2cc3ccccc3nc2-1` [CAMPTOTHECIN]?
A: IC50 [1]: 33 nM; IC50 ratio (Jurkat [2]): 1.4; IC50 ratio (Jurkat [3]): 2; IC50 (P388): 13 nM; IC50 (Jurkat [4]): 5.6 nM
